Experimental data reported in US7348427B2, “Antipathogenic benzamide compounds” (Genesoft Pharmaceuticals, Inc., priority 2001, dated 2008).

Tests used:
[1] = tested on: Bacillus cereus (ATCC 11778); assay: MIC, NCCLS broth microdilution assay; format: cell-based; details: A = B. cereus ATCC 11778
Procedure, shortened: (§1)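 MIC determined by broth microdilution in microtiter plates per NCCLS documents M7-A4, M11-A4 (1997) and M27-T (1995). Antifungal testing against the yeast followed the method recommended in the Manual of Clinical Microbiology (1995).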

[2] = tested on: Enterococcus faecium (ATCC 51559, a vancomycin resistant strain (VRE)); assay: MIC, NCCLS broth microdilution assay; format: cell-based; details: D = E. faecium ATCC 51559
Procedure, shortened: as §1

[3] = tested on: Staphylococcus aureus (ATCC 27660, a methicillin resistant strain (MRSA)); assay: MIC, NCCLS broth microdilution assay; format: cell-based; details: F = S. aureus ATCC 27660
Procedure, shortened: as §1

[4] = tested on: Staphylococcus epidermidis (ATCC 12228); assay: MIC, NCCLS broth microdilution assay; format: cell-based; details: G = S. epidermidis ATCC 12228
Procedure, shortened: as §1

[5] = tested on: Candida albicans (ATCC 38247); assay: Antifungal MIC assay; format: cell-based; details: B = C. albicans ATCC 38247
Procedure, shortened: as §1

E. faecalis ATCC 29212 = assay: MIC, NCCLS broth microdilution assay; format: cell-based, Enterococcus faecalis; details: C = E. faecalis ATCC 29212
Procedure, shortened: (§2)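 Broth microdilution per NCCLS M7-A4 (1997) guidelines; MIC recorded as minimal inhibitory concentration.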

[6] = tested on: Staphylococcus aureus (ATCC 13709, a methicillin sensitive strain (MSSA)); assay: MIC, NCCLS broth microdilution assay; format: cell-based; details: E = S. aureus ATCC 13709
Procedure, shortened: as §1

[7] = tested on: Streptococcus pneumoniae (ATCC 51422, a penicillin resistant strain (PRSP)); assay: MIC, NCCLS broth microdilution assay; format: cell-based; details: I = S. pneumoniae ATCC 51422
Procedure, shortened: as §1

S. pneumoniae ATCC 49619 = assay: MIC, NCCLS broth microdilution assay; format: cell-based, Streptococcus pneumoniae; details: H = S. pneumoniae ATCC 49619
Procedure, shortened: as §2

[8] = Staphylococcus aureus, read-out: Minimum Inhibitory Concentration (MIC)

Structure (SMILES)	Minimum Inhibitory Concentration (MIC) [1]	Minimum Inhibitory Concentration (MIC) [2]	Minimum Inhibitory Concentration (MIC) [3]	Minimum Inhibitory Concentration (MIC) [4]	Minimum Inhibitory Concentration (MIC) [5]	Minimum Inhibitory Concentration (MIC) (E. faecalis ATCC 29212)	Minimum Inhibitory Concentration (MIC) [6]	Minimum Inhibitory Concentration (MIC) [7]	Minimum Inhibitory Concentration (MIC) (S. pneumoniae ATCC 49619)	MIC ([1]; Bacillus cereus, ATCC11778, read-out: Minimum Inhibitory Concentration (MIC)) [µg/mL]	MIC ([2]; Enterococcus faecium, read-out: Minimum Inhibitory Concentration (MIC)) [µg/mL]	MIC [6, 8] [µg/mL]	MIC [3, 8] [µg/mL]	MIC ([4]; Staphylococcus epidermidis, ATCC12228, read-out: Minimum Inhibitory Concentration (MIC)) [µg/mL]	MIC ([7]; Streptococcus pneumoniae, read-out: Minimum Inhibitory Concentration (MIC)) [µg/mL]	MIC ([5]; Candida albicans, ATCC38247, read-out: Minimum Inhibitory Concentration (MIC)) [µg/mL]	MIC (E. faecalis ATCC 29212; Enterococcus faecalis, ATCC29212, read-out: Minimum Inhibitory Concentration (MIC)) [µg/mL]	MIC (S. pneumoniae ATCC 49619; Streptococcus pneumoniae, ATCC49619, read-out: Minimum Inhibitory Concentration (MIC)) [µg/mL]
Cn1cc(NC(=O)c2cc(NC(=O)c3cc(NC(=O)c4cc(NC(=O)c5ccc(F)cc5F)c[nH]4)cn3C)cn2C)cc1C(=O)NCCN1CCOCC1 [Compound A-2]	+++ (+++ = MIC ≦ 4)	+ (+ = 12 ≦ MIC ≦ 32)	+ (+ = 12 ≦ MIC ≦ 32)	+ (+ = 12 ≦ MIC ≦ 32)	>32 µg/mL	++ (++ = 4 < MIC < 12)												
Cn1cc(NC(=O)c2cc(NC(=O)c3cc(NC(=O)c4ccc(F)cc4F)c[nH]3)cn2C)cc1C(=O)NCCc1ccncc1 [Compound A-7]	+++ (+++ = MIC ≦ 4)	+++ (+++ = MIC ≦ 4)	+++ (+++ = MIC ≦ 4)	+++ (+++ = MIC ≦ 4)	>32 µg/mL	+++ (+++ = MIC ≦ 4)	+++ (+++ = MIC ≦ 4)	+++ (+++ = MIC ≦ 4)	+++ (+++ = MIC ≦ 4)									
Cn1cc(NC(=O)c2cc(NC(=O)c3cc(NC(=O)c4ccc(F)cc4F)c[nH]3)cn2C)cc1C(=O)NCCN1CCC(F)(F)CC1 [Compound A-12]	+++ (+++ = MIC ≦ 4)	+++ (+++ = MIC ≦ 4)	+ (+ = 12 ≦ MIC ≦ 32)	+++ (+++ = MIC ≦ 4)	>32 µg/mL	+++ (+++ = MIC ≦ 4)	+++ (+++ = MIC ≦ 4)	+++ (+++ = MIC ≦ 4)	+++ (+++ = MIC ≦ 4)									
CN(C)CCCNC(=O)c1cc(NC(=O)c2cc(NC(=O)c3cc(NC(=O)c4ccc(Cl)cc4F)c[nH]3)cn2C)cn1C [Compound A-13]	+++ (+++ = MIC ≦ 4)	+ (+ = 12 ≦ MIC ≦ 32)	+++ (+++ = MIC ≦ 4)	+++ (+++ = MIC ≦ 4)	+++ (+++ = MIC ≦ 4)	++ (++ = 4 < MIC < 12)	+++ (+++ = MIC ≦ 4)	+++ (+++ = MIC ≦ 4)	+++ (+++ = MIC ≦ 4)									
CCN(CC)CCNC(=O)c1cc(NC(=O)c2cc(NC(=O)c3cc(NC(=O)c4ccc(Cl)cc4F)c[nH]3)cn2C)cn1C [Compound A-16]	+++ (+++ = MIC ≦ 4)	+++ (+++ = MIC ≦ 4)	+++ (+++ = MIC ≦ 4)	+++ (+++ = MIC ≦ 4)	+++ (+++ = MIC ≦ 4)	+++ (+++ = MIC ≦ 4)	+++ (+++ = MIC ≦ 4)	+++ (+++ = MIC ≦ 4)	+++ (+++ = MIC ≦ 4)									
Cn1cc(NC(=O)c2cc(NC(=O)c3ccc(Cl)cc3F)c[nH]2)cc1C(=O)NCCN1CCCCC1 [Compound A-18]	+++ (+++ = MIC ≦ 4)	+++ (+++ = MIC ≦ 4)	+++ (+++ = MIC ≦ 4)	+++ (+++ = MIC ≦ 4)	>32 µg/mL	+++ (+++ = MIC ≦ 4)	+++ (+++ = MIC ≦ 4)	+++ (+++ = MIC ≦ 4)	+++ (+++ = MIC ≦ 4)									
Cn1cc(NC(=O)c2cc(NC(=O)c3ccc(Cl)cc3F)c[nH]2)cc1C(=O)NCCN1CCSCC1 [Compound A-21]	+++ (+++ = MIC ≦ 4)	+++ (+++ = MIC ≦ 4)	+++ (+++ = MIC ≦ 4)	+++ (+++ = MIC ≦ 4)	>32 µg/mL	+++ (+++ = MIC ≦ 4)	+++ (+++ = MIC ≦ 4)	+++ (+++ = MIC ≦ 4)	+++ (+++ = MIC ≦ 4)									
Cn1cc(NC(=O)c2cc(NC(=O)c3ccc(Cl)cc3F)c[nH]2)cc1C(=O)NCCN1CCC(F)(F)CC1 [Compound A-22]	+++ (+++ = MIC ≦ 4)	+++ (+++ = MIC ≦ 4)	+++ (+++ = MIC ≦ 4)	+++ (+++ = MIC ≦ 4)	>32 µg/mL	+++ (+++ = MIC ≦ 4)	+++ (+++ = MIC ≦ 4)	+++ (+++ = MIC ≦ 4)	+++ (+++ = MIC ≦ 4)									
Cn1cc(NC(=O)c2cc(NC(=O)c3cc(NC(=O)c4ccc(Cl)cc4F)c[nH]3)cn2C)cc1C(=O)NCC[N+]1(C)CCOCC1 [Compound A-28]										≤ 4	12 to 32	≤ 4	≤ 4	≤ 4	≤ 4	≤ 4	4 to 12	≤ 4
Cn1cc(NC(=O)c2cc(NC(=O)c3cc(NC(=O)c4ccc(F)cc4F)cn3C)cn2C)cc1C(=O)NCCN1CCOCC1 [Compound B-1]	+++ (+++ = MIC ≦ 4)	+++ (+++ = MIC ≦ 4)	+++ (+++ = MIC ≦ 4)	+++ (+++ = MIC ≦ 4)	>32 µg/mL	+++ (+++ = MIC ≦ 4)	+++ (+++ = MIC ≦ 4)	+++ (+++ = MIC ≦ 4)	+++ (+++ = MIC ≦ 4)									
Cn1cc(NC(=O)c2cc(NC(=O)c3ccc(F)cc3)cn2C)cc1C(=O)NCCN1CCOCC1 [Compound B-36]	>32 µg/mL	+ (+ = 12 ≦ MIC ≦ 32)	>32 µg/mL		>32 µg/mL	>32 µg/mL	>32 µg/mL	>32 µg/mL	+ (+ = 12 ≦ MIC ≦ 32)									
Cc1cc(NC(=O)c2cc(NC(=O)c3cc(NC(=O)c4ccc(F)cc4F)c[nH]3)cn2CCN2CCOCC2)sn1 [Compound D-4]	>32 µg/mL		>32 µg/mL		>32 µg/mL	>32 µg/mL	>32 µg/mL	+++ (+++ = MIC ≦ 4)	>32 µg/mL									
